According to patent US20210395239A1 (Hoffmann-La Roche Inc., priority 2018, published 2021):

What follows are compounds tested against T1, human TLR7 (Homo sapiens, UniProt Q9NYK1) (assay: HEK293-Blue-hTLR-7 cells assay (SEAP reporter, R848 stimulation)). Details: HEK293-Blue-hTLR7 cells, R848, 20 hrs; read-out: HEK/hTLR7 IC50.
T1 construct: host or cells: HEK293 (HEK-Blue hTLR7)
T1 sequence (Q9NYK1 27-1049): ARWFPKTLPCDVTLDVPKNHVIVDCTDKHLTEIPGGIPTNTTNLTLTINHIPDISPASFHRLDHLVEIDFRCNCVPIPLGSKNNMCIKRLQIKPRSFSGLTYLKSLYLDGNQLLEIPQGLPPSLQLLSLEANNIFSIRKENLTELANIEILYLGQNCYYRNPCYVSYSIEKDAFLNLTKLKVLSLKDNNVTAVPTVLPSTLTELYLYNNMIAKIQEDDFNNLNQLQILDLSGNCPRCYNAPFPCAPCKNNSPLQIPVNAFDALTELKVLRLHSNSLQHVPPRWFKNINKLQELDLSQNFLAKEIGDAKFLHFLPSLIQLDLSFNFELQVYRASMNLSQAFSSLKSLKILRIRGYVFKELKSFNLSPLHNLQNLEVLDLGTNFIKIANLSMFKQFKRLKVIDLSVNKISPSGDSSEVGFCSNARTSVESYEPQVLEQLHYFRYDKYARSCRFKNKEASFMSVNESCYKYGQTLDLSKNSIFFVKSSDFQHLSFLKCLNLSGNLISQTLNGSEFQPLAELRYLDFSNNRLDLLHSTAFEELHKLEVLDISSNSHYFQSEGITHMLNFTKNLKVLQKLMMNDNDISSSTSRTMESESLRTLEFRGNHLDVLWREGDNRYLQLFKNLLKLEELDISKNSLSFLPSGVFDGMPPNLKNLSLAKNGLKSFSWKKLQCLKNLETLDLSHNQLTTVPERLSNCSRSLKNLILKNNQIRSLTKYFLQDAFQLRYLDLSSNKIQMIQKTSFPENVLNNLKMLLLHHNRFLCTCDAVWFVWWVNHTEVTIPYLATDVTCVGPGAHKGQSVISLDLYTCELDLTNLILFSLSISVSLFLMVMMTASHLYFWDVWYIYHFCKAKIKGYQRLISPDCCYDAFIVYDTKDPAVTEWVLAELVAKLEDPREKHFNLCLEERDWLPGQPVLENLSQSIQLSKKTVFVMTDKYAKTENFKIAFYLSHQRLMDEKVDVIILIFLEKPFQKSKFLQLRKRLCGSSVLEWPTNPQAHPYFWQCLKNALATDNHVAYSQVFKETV
Assay type: cell-based
Method in brief: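 HEK293-Blue-hTLR7 cells (NF-κB/AP-1-driven SEAP reporter) were stimulated with R848 alongside serially diluted compound at 1% final DMSO for 20 h at 37 °C. Supernatant SEAP was then developed with QUANTI-Blue for 2 h at 37 °C and absorbance read at 620–655 nm; antagonism is measured as reduced reporter signal.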

Question: For `CO[C@H]1CN(c2nc(C)cc(N3CCN(C[C@H]4CN(c5ccc(C#N)c6ncccc56)C[C@@H](C)O4)CC3)n2)CC1N` (relative stereo) [Example 59, 5-[(2R,6S)-2-methyl-6-[[4-[6-methyl-2-[trans-3-amino-4-methoxy-pyrrolidin-1-yl]pyrimidin-4-yl]piperazin-1-yl]methyl]morpholin-4-yl]quinoline-8-carbonitrile], which IC50 is on record?
Answer: 11 nM

Question: How did the IC50 turn out when `COC1CNC[C@H]1Nc1cccc(N2CCN(C[C@H]3CN(c4ccc(C#N)c5ncccc45)C[C@@H](C)O3)CC2)n1` (stereo in doubt) [Example 39, 5-[(2S,6R)-2-[[4-[6-[[(3R,4R)-4-methoxypyrrolidin-3-yl]amino]-2-pyridyl]piperazin-1-yl]methyl]-6-methyl-morpholin-4-yl]quinoline-8-carbonitrile] was run?
Answer: 51 nM

Question: With `COC1CN(c2nccc(N3CCN(C[C@H]4CN(c5ccc(C#N)c6ncccc56)C[C@@H](C)O4)CC3)n2)C[C@H]1N` (stereo in doubt) [Example 52, 5-[(2S,6R)-2-[[4-[2-[(3R,4R)-3-amino-4-methoxy-pyrrolidin-1-yl]pyrimidin-4-yl]piperazin-1-yl]methyl]-6-methyl-morpholin-4-yl]quinoline-8-carbonitrile] as the compound, how does the IC50 read?
Answer: 15 nM

Question: With `CO[C@H]1CN(c2nccc(N3CCN(C[C@H]4CN(c5ccc(C#N)c6ncccc56)C[C@@H](C)O4)CC3)n2)CC1N` (stereo in doubt) [Example 53, 5-[(2S,6R)-2-[[4-[2-[(3S,4S)-3-amino-4-methoxy-pyrrolidin-1-yl]pyrimidin-4-yl]piperazin-1-yl]methyl]-6-methyl-morpholin-4-yl]quinoline-8-carbonitrile] as the compound, how does the IC50 read?
Answer: 8 nM

Question: How did the IC50 turn out when `Cc1cc(N2CCN(C[C@H]3CN(c4ccc(C#N)c5ncccc45)C[C@@H](C)O3)CC2)nc(N2CC(N)C(F)C2)n1` (stereo in doubt) [Example 54, 5-[(2S,6R)-2-[[4-[2-[(3S,4R)-3-amino-4-fluoro-pyrrolidin-1-yl]-6-methyl-pyrimidin-4-yl]piperazin-1-yl]methyl]-6-methyl-morpholin-4-yl]quinoline-8-carbonitrile] was run?
Answer: 9 nM

Question: For `COC1CN(c2ccc(C3CN(C[C@H]4CN(c5cc(=O)n(C)c6ncccc56)C[C@@H](C)O4)C3)cc2)C[C@H]1N` (stereo in doubt) [Example 172, 4-[(2S,6R)-2-[[3-[4-[(3R,4R)-3-amino-4-methoxy-pyrrolidin-1-yl]phenyl]azetidin-1-yl]methyl]-6-methyl-morpholin-4-yl]-1-methyl-1,8-naphthyridin-2-one], which IC50 is on record?
Answer: 41 nM

Question: For `C[C@@H]1CN(c2cc(=O)n(C)c3ncccc23)C[C@H](CN2CC(c3ccc(N4CC(F)[C@H](N)C4)cc3)C2)O1` (stereo in doubt) [Example 174, 4-[(2S,6R)-2-[[3-[4-[(3R,4R)-3-amino-4-fluoro-pyrrolidin-1-yl]phenyl]azetidin-1-yl]methyl]-6-methyl-morpholin-4-yl]-1-methyl-1,8-naphthyridin-2-one], which IC50 is on record?
Answer: 47 nM

Question: Which IC50 does the source give for `C[C@@H]1CN(c2ccc(C#N)n3ncc(F)c23)C[C@H](CN2CCN(c3ccc(C4CNCCO4)cc3F)CC2)O1` (stereo in doubt) [Example 183, 3-fluoro-4-[(2S,6R)-2-[[4-[2-fluoro-4-[(2S)-morpholin-2-yl]phenyl]piperazin-1-yl]methyl]-6-methyl-morpholin-4-yl]pyrazolo[1,5-a]pyridine-7-carbonitrile] here?
Answer: 28 nM

Question: For `C[C@@H]1CN(c2ccc(C#N)c3ncccc23)C[C@H](CN2CCN(c3cncc(N4CCNCC4)c3)CC2)O1` [Example 7, 5-[(2R,6S)-2-methyl-6-[[4-(5-piperazin-1-yl-3-pyridyl)piperazin-1-yl]methyl]morpholin-4-yl]quinoline-8-carbonitrile], which IC50 is on record?
Answer: 34 nM

Question: With `C[C@@H]1CN(c2ccc(C#N)c3ncccc23)C[C@H](CN2CCN(c3ccc(N4CCNCC4)cn3)CC2)O1` [Example 8, 5-[(2R,6S)-2-methyl-6-[[4-(5-piperazin-1-yl-2-pyridyl)piperazin-1-yl]methyl]morpholin-4-yl]quinoline-8-carbonitrile] as the compound, how does the IC50 read?
Answer: 50 nM

Question: For `C[C@@H]1CN(c2ccc(C#N)c3ncccc23)C[C@H](CN2CCN(c3cc(N4CCNCC4)ccn3)CC2)O1` [Example 9, 5-[(2R,6S)-2-methyl-6-[[4-(4-piperazin-1-yl-2-pyridyl)piperazin-1-yl]methyl]morpholin-4-yl]quinoline-8-carbonitrile], which IC50 is on record?
Answer: 19 nM

Question: Which IC50 does the source give for `C[C@@H]1CN(c2ccc(C#N)c3ncccc23)C[C@H](CN2CCN(c3cccc(N4CCNCC4)n3)CC2)O1` [Example 10, 5-[(2R,6S)-2-methyl-6-[[4-(6-piperazin-1-yl-2-pyridyl)piperazin-1-yl]methyl]morpholin-4-yl]quinoline-8-carbonitrile] here?
Answer: 33 nM

Question: Which IC50 does the source give for `C[C@@H]1CN(c2ccc(C#N)c3ncccc23)C[C@H](CN2CCC(C#N)(c3ccc(N4CCNCC4)cc3)CC2)O1` [Example 11, 5-[(2S,6R)-2-[[4-cyano-4-(4-piperazin-1-ylphenyl)-1-piperidyl]methyl]-6-methyl-morpholin-4-yl]quinoline-8-carbonitrile] here?
Answer: 23 nM

Question: `C[C@@H]1CN(c2ccc(C#N)c3ncccc23)C[C@H](CN2CCN(c3cnc(N4CCNCC4)nc3)CC2)O1` [Example 12, 5-[(2R,6S)-2-methyl-6-[[4-(2-piperazin-1-ylpyrimidin-5-yl)piperazin-1-yl]methyl]morpholin-4-yl]quinoline-8-carbonitrile] was tested. Which IC50 did it give?
Answer: 12 nM

Question: For `C[C@@H]1CN(c2ccc(C#N)c3ncccc23)C[C@H](CN2CCN(c3ccc(N4CCNCC4)nc3)CC2)O1` [Example 13, 5-[(2R,6S)-2-methyl-6-[[4-(6-piperazin-1-yl-3-pyridyl)piperazin-1-yl]methyl]morpholin-4-yl]quinoline-8-carbonitrile], which IC50 is on record?
Answer: 18 nM

Question: For `C[C@@H]1CN(c2ccc(C#N)c3ncccc23)C[C@H](CN2CCN(c3nccc(N4CCNCC4)n3)CC2)O1` [Example 14, 5-[(2R,6S)-2-methyl-6-[[4-(4-piperazin-1-ylpyrimidin-2-yl)piperazin-1-yl]methyl]morpholin-4-yl]quinoline-8-carbonitrile], which IC50 is on record?
Answer: 6 nM

Question: Which IC50 does the source give for `C[C@@H]1CN(c2ccc(C#N)c3ncccc23)C[C@H](CN2CCN(c3ccnc(N4CCNCC4)n3)CC2)O1` [Example 15, 5-[(2R,6S)-2-methyl-6-[[4-(2-piperazin-1-ylpyrimidin-4-yl)piperazin-1-yl]methyl]morpholin-4-yl]quinoline-8-carbonitrile] here?
Answer: 7 nM

Question: `C[C@@H]1CN(c2ccc(C#N)c3ncccc23)C[C@H](CN2CCN(c3ncc(N4CCNCC4)cn3)CC2)O1` [Example 17, 5-[(2R,6S)-2-methyl-6-[[4-(5-piperazin-1-ylpyrimidin-2-yl)piperazin-1-yl]methyl]morpholin-4-yl]quinoline-8-carbonitrile] was tested. Which IC50 did it give?
Answer: 31 nM

Question: Which IC50 does the source give for `C[C@@H]1CN(c2ccc(C#N)c3ncccc23)C[C@H](CN2CCN(c3cc(N4CCNCC4)ncn3)CC2)O1` [Example 18, 5-[(2R,6S)-2-methyl-6-[[4-(6-piperazin-1-ylpyrimidin-4-yl)piperazin-1-yl]methyl]morpholin-4-yl]quinoline-8-carbonitrile] here?
Answer: 11 nM

Question: Which IC50 does the source give for `C[C@@H]1CN(c2ccc(C#N)c3ncccc23)C[C@H](CN2CCN(c3ccc([C@@H]4CNCCO4)cc3)CC2)O1` [Example 19, 5-[(2R,6S)-2-methyl-6-[[4-[4-[(2R)-morpholin-2-yl]phenyl]piperazin-1-yl]methyl]morpholin-4-yl]quinoline-8-carbonitrile] here?
Answer: 25 nM

Question: For `C[C@@H]1CN(c2ccc(C#N)c3ncccc23)C[C@H](CN2CCN(c3ccc([C@H]4CNCCO4)cc3)CC2)O1` [Example 20, 5-[(2R,6S)-2-methyl-6-[[4-[4-[(2S)-morpholin-2-yl]phenyl]piperazin-1-yl]methyl]morpholin-4-yl]quinoline-8-carbonitrile], which IC50 is on record?
Answer: 20 nM

Question: How did the IC50 turn out when `C[C@@H]1CN(c2ccc(C#N)c3ncccc23)C[C@H](CN2CCN(c3cc(N4CCN(C)CC4)ncn3)CC2)O1` [Example 21, 5-[(2R,6S)-2-methyl-6-[[4-[6-(4-methylpiperazin-1-yl)pyrimidin-4-yl]piperazin-1-yl]methyl]morpholin-4-yl]quinoline-8-carbonitrile] was run?
Answer: 16 nM

Question: With `C[C@@H]1CN(c2ccc(C#N)c3ncccc23)C[C@H](CN2CCN(c3ccnc(N4CCN(C)CC4)n3)CC2)O1` [Example 22, 5-((2R,6S)-2-methyl-6-((4-(2-(4-methylpiperazin-1-yl)pyrimidin-4-yl)piperazin-1-yl)methyl)morpholino)quinoline-8-carbonitrile] as the compound, how does the IC50 read?
Answer: 10 nM
